By inhibition is commonly meant the change of the read-out against control, counted positive when it falls. High values mean strong suppression, low ones little suppression.

A value given as a limit tells only on which side of the number the result lay.

The subject of assay [1] is MC903-induced persistent itch behavior of mice. As to the kind of experiment: MC903 model of persistent itch (skin inflammation). Format: in vivo. As to conditions: i.p. at day 8, vs vehicle. The protocol:
Similarly, the effect of Compound 6 was also examined in the MC903 model of skin inflammation, which has some characteristics of allergic contact dermatitis and atopic dermatitis^32.
The fur on the dorsolateral aspect of the neck was shaved under brief isoflurane anesthesia. Five days thereafter, 20 μL MC903 (0.2 mM; Calcipotriol, Tocris) solved in absolute ethanol was applied to the skin at the back of the neck in brief anesthesia for 7 consecutive days. On day 8, mice were habituated for 30 min in separate plexiglass cylinders (30 cm diameter). Compounds or vehicle (10% 2-hydroxypropyl-β-cyclodextrine in 0.9% saline) were i.p. administered, and 15 min thereafter spontaneous scratching was recorded over 30 min by videotaping (FIG. 10D). […] These findings are important, because they indicate that Slack activators can ameliorate pruritus that has already established.

Assay [2] deals with CFA-induced paw hypersensitivity of mice. As to the kind of experiment: CFA-induced inflammatory pain model. Format: in vivo. The settings on record: 10 mg/kg i.p. 24 h after CFA; 0.5 h and 1 h after administration. How it is done:
(§1) Animals: Experiments were performed in 8-16 week-old C57BL/6N mice (Charles River, Sulzfeld, Germany) of either sex. The animals were housed under a 12 h light/dark cycle with access to food and water ad libitum. All experiments adhered to the Animal Research: Reporting on In Vivo Experiments (ARRIVE) guidelines and were approved by and conducted in accordance with the regulations of the local Animal Welfare authorities (Regierungspräsidium Darmstadt, Germany; approval number V54-19c20/15-FR/2011). All behavioral studies were conducted during the light cycle of the day at room temperature (20-24° C.) by an observer blinded for the treatment of the animals and/or their genotype.
Behavioral assessment: Mechanical sensitivity of a hindpaw was assessed using a dynamic plantar aesthesiometer (Ugo Basile, Comerio, VA, Italy). Animals were placed on a wire mesh grid and habituated to the apparatus chamber for 1 h. […] The paw withdrawal latency was recorded automatically and calculated as the average of 6-8 measurements. […] Mechanical sensitivity was again determined 24 h after the CFA injection. Immediately thereafter, drug or vehicle (10% cyclodextrine in 0.9% NaCl) were intraperitoneally administered and the mechanical sensitivity was determined over 3 h. […]

Assay [3] deals with chloroquine-induced scratching behavior of mice. As to the kind of experiment: Chloroquine-induced itch model, topical application of creme. As to conditions: 5% in hydrophilic creme (Basiscreme DAC), topical 30 min prior to s.c. chloroquine. Format: in vivo. The protocol:
as §1, with “animals.” for “animals and/or their genotype.”
Drug formulation: A creme formulation of Compound 6 and Compound 21 was prepared by mixing a hydrophilic creme (Basiscreme DAC) with 5% of each Slack activator.
Behavioral assessment: Three to four days before the day of the experiment, the fur on the dorsolateral aspect of the neck was shaved under brief isoflurane anesthesia. On the testing day, Compound 6 creme, Compound 21 creme, or creme vehicle were applied topically on the shaved region of the neck under brief isoflurane anesthesia and the mice were habituated to a Plexiglas cylinder (30 cm in diameter) for 30 min immediately thereafter. […] The number of scratching bouts directed towards the nape of the neck was assessed over 30 min by videotaping.

The subject of assay [4] is neuropathic pain behavior of mice. As to the kind of experiment: Spared nerve injury (SNI) model of neuropathic pain. In kind it is in vivo. The settings on record: i.p., 28 days after SNI surgery, assessed over 3 h. How it is done:
FIG. 8: Compound 6 and Compound 10 inhibit histamine-independent acute itch behavior and neuropathic pain behavior. (A), (B), Motor function. […] Dotted lines indicate cutoff times. * p<0.05, *** p<0.001, Kruskal-Wallis test. (C)-(G), Acute itch behavior. Compound 6, Compound 10 or vehicle were i.p. administered and 15 min thereafter different pruritogens were s.c. administered into the nape of the neck and the number of scratching bouts was counted over 30 min. In each panel, the time course of scratching behavior is shown on the left and the sum of scratching bouts in 30 min is presented on the right. (C), Compound 6 and Compound 10 inhibited the scratching behavior induced by chloroquine in a dose-dependent manner. (D) Compound 6 inhibited the chloroquine-induced scratching behavior in WT mice but not in Slack^−/− littermates. (E) Compound 6 ameliorated the scratching behavior induced by SLIGRL, (F) but not by histamine. n=7-8 per group. […] Twenty-eight days thereafter, mechanical hypersensitivity of the affected hindpaw (determined using a Dynamic Plantar Aesthesiometer), which is indicated by decreased paw withdrawal latency time, was detected in all mice. Then Compound 10 or vehicle were i.p. administered and the mechanical sensitivity was assessed over 3 h. […]

Assay [5] addresses muscarine M1 receptor (Homo sapiens, UniProt P11229). Briefly: SafetyScreen44 binding. The settings on record: substantial = higher than 50%.
Assay [6] deals with T1, muscarine M3 receptor (Homo sapiens, UniProt P20309).
T1 construct: Eurofins SafetyScreen44
T1 sequence (P20309 whole entry): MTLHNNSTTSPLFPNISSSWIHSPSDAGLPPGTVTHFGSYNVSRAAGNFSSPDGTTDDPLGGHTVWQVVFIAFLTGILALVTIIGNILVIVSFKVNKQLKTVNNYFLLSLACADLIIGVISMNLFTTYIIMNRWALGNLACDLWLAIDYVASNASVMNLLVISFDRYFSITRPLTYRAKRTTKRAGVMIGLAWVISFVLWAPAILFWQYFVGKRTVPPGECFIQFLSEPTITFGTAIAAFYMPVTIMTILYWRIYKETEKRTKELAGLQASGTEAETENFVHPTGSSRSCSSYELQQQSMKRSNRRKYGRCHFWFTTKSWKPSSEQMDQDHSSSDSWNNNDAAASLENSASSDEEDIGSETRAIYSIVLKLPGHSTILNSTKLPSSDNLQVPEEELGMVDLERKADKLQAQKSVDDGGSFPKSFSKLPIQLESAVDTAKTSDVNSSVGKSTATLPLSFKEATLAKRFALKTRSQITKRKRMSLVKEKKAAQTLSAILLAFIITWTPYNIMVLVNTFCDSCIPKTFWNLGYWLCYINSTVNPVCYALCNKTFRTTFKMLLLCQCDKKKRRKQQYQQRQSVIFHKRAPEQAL
As to the kind of experiment: SafetyScreen44 binding. As to conditions: substantial = higher than 50%.

Sequence of muscarine M1 receptor (P11229 whole entry): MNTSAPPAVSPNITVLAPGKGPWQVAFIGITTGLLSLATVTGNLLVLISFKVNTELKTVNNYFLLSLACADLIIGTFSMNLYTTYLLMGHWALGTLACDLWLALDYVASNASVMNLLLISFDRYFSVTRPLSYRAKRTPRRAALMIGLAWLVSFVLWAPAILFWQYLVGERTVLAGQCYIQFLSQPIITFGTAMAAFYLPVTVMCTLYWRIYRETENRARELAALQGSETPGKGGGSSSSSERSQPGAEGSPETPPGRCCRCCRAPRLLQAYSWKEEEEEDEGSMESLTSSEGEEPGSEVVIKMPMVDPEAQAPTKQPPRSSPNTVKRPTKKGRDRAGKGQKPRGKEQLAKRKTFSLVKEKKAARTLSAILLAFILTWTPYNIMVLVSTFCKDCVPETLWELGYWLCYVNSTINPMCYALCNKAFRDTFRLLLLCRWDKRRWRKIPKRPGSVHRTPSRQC

On to `O=C(O)COCCN1CCN(C2=Nc3ccccc3Oc3ccc(Cl)cc32)CC1` [Compound 6, 2-(2-(4-(2-Chlorodibenzo[b,f][1,4]oxazepin-11-yl)piperazin-1-yl)ethoxy) acetic acid], for which, in assay [1], the “head shaking, MC903 model” value was “significantly ameliorated” and the “scratching, MC903 model” value is recorded as “significantly ameliorated”. Also, the “paw withdrawal latencies compared to vehicle-treated animals” value in assay [2] was “significantly increased”. The “chloroquine-induced scratching behavior after topical application” value in assay [3] is recorded as “significantly ameliorated scratching behavior”.
On to `O=c1nc(CN2CCN(C3=Nc4ccccc4Oc4ccc(Cl)cc43)CC2)[nH][nH]1` [Compound 10, 5-((4-(2-Chlorodibenzo[b,f][1,4]oxazepin-11-yl)piperazin-1-yl)methyl)-1,2-dihydro-3H-1,2,4-triazol-3-one], for which the “neuropathic pain behavior (mechanical hypersensitivity, paw withdrawal latency)” value in assay [4] is “inhibited the neuropathic pain behavior”.
Turning to `CN1CCN(C2=Nc3ccccc3Oc3ccc(Cl)cc32)CC1` [Loxapine, 2-chloro-11-(4-methylpiperazin-1-yl)dibenzo[b,f][1,4]oxazepine, reference compound], the inhibition at 10 µM in assay [5] and in assay [6] was over 50% in each case.
